Laboratory results taken from PMC5218480 (PLoS ONE, 2017).

Test system: MV-4-11 cells
Assay: Gene expression microarray analysis (Affymetrix PrimeView) and GSEA
Assay type: cell-based, human
Set-up: RFU PODN (11730768_x_at) / Fold change /veh PODN (11730768_x_at) / RFU LINC00158 (11744669_a_at) / Fold change /veh LINC00158 (11744669_a_at) / RFU DUSP10 (11751237_a_at) / Fold change /veh DUSP10 (11751237_a_at) / RFU ID3 (11757404_x_at) / Fold change /veh ID3 (11757404_x_at) / RFU PLEKHG5 (11737974_s_at) / Fold change /veh PLEKHG5 (11737974_s_at) / RFU LRRC4B (11730491_at) / Fold change /veh LRRC4B (11730491_at) / RFU GIMAP4 (11747438_a_at) / Fold change /veh GIMAP4 (11747438_a_at) / RFU KRT8 (11758183_x_at) / Fold change /veh KRT8 (11758183_x_at) / RFU CNN1 (11734310_a_at) / Fold change /veh CNN1 (11734310_a_at) / RFU VPS37D (11726825_at) / Fold change /veh VPS37D (11726825_at) / RFU C10orf10 (11716522_x_at) / Fold change /veh C10orf10 (11716522_x_at) / RFU KIR2DL2 /// KIR2DL4 /// KIR2DL5A /// KIR2DL5B /// KIR2DS1 /// KIR2DS2 /// KIR2DS3 /// KIR2DS4 /// KIR3DL3 /// KIR3DL3 /// KIR3DS1 (11738374_at) / Fold change /veh KIR2DL2 /// KIR2DL4 /// KIR2DL5A /// KIR2DL5B /// KIR2DS1 /// KIR2DS2 /// KIR2DS3 /// KIR2DS4 /// KIR3DL3 /// KIR3DL3 /// KIR3DS1 (11738374_at) / RFU C1QL1 (11718748_at) / Fold change /veh C1QL1 (11718748_at) / RFU TMPRSS4 (11747572_a_at) / Fold change /veh TMPRSS4 (11747572_a_at) / RFU HAMP (11756126_x_at) / Fold change /veh HAMP (11756126_x_at) / RFU RNFT2 (11725882_a_at) / Fold change /veh RNFT2 (11725882_a_at) / RFU NR4A2 (11747474_a_at) / Fold change /veh NR4A2 (11747474_a_at) / RFU ABCC12 (11746883_a_at) / Fold change /veh ABCC12 (11746883_a_at) / RFU TMEM136 (11760407_x_at) / Fold change /veh TMEM136 (11760407_x_at) / RFU CLDN22 /// WWC2 (11732394_at) / Fold change /veh CLDN22 /// WWC2 (11732394_at) / RFU HLA-DPB1 (11760878_x_at) / Fold change /veh HLA-DPB1 (11760878_x_at) / RFU SPINT1 (11716480_a_at) / Fold change /veh SPINT1 (11716480_a_at) / RFU GAP43 (11754022_s_at) / Fold change /veh GAP43 (11754022_s_at) / RFU A4GNT (11735810_at) / Fold change /veh A4GNT (11735810_at) / RFU PRB3 (11715151_x_at) / Fold change /veh PRB3 (11715151_x_at) / RFU TUBB4B (11761932_at) / Fold change /veh TUBB4B (11761932_at) / RFU CAPN14 (11732068_a_at) / Fold change /veh CAPN14 (11732068_a_at) / RFU TMCC2 (11721928_a_at) / Fold change /veh TMCC2 (11721928_a_at) / RFU IRGQ (11745062_a_at) / Fold change /veh IRGQ (11745062_a_at) / RFU FAM174B (11720279_a_at) / Fold change /veh FAM174B (11720279_a_at) / RFU TMPRSS4 (11748680_a_at) / Fold change /veh TMPRSS4 (11748680_a_at) / RFU FAM212B (11763350_a_at) / Fold change /veh FAM212B (11763350_a_at) / RFU PLEKHG5 (11743358_a_at) / Fold change /veh PLEKHG5 (11743358_a_at) / RFU ZSCAN30 (11745921_a_at) / Fold change /veh ZSCAN30 (11745921_a_at) / RFU CMKLR1 (11741424_a_at) / Fold change /veh CMKLR1 (11741424_a_at) / RFU LOC101060620 /// MAPK8IP1 (11723275_at) / Fold change /veh LOC101060620 /// MAPK8IP1 (11723275_at) / RFU SPTSSB (11747773_x_at) / Fold change /veh SPTSSB (11747773_x_at) / RFU PRSS12 (11739890_at) / Fold change /veh PRSS12 (11739890_at) / RFU BIN1 (11741810_x_at) / Fold change /veh BIN1 (11741810_x_at) / RFU WNT11 (11732464_a_at) / Fold change /veh WNT11 (11732464_a_at) / RFU C10orf10 (11716521_a_at) / Fold change /veh C10orf10 (11716521_a_at) / RFU C5orf56 (11738089_at) / Fold change /veh C5orf56 (11738089_at) / RFU CYB561 (11721691_x_at) / Fold change /veh CYB561 (11721691_x_at) / RFU ANKRD19P (11752326_a_at) / Fold change /veh ANKRD19P (11752326_a_at) / RFU OR2T12 /// OR2T33 /// OR2T8 (11738714_s_at) / Fold change /veh OR2T12 /// OR2T33 /// OR2T8 (11738714_s_at) / RFU VCAN (11748164_a_at) / Fold change /veh VCAN (11748164_a_at) / RFU JSRP1 (11732532_at) / Fold change /veh JSRP1 (11732532_at) / RFU KRTAP10-11 (11738290_x_at) / Fold change /veh KRTAP10-11 (11738290_x_at) / RFU MYO3A (11730013_a_at) / Fold change /veh MYO3A (11730013_a_at) / RFU EBF3 (11725865_a_at) / Fold change /veh EBF3 (11725865_a_at) / RFU CAMK2N1 (11719241_x_at) / Fold change /veh CAMK2N1 (11719241_x_at) / RFU C5orf56 (11738088_a_at) / Fold change /veh C5orf56 (11738088_a_at) / RFU OLFML3 (11715873_a_at) / Fold change /veh OLFML3 (11715873_a_at) / RFU LOC100653217 /// NTM (11731650_a_at) / Fold change /veh LOC100653217 /// NTM (11731650_a_at) / RFU MAPK11 (11762145_a_at) / Fold change /veh MAPK11 (11762145_a_at) / RFU FIZ1 (11724087_x_at) / Fold change /veh FIZ1 (11724087_x_at) / RFU OASL (11726364_x_at) / Fold change /veh OASL (11726364_x_at) / RFU SOX15 (11748057_x_at) / Fold change /veh SOX15 (11748057_x_at) / RFU CD79A (11719716_a_at) / Fold change /veh CD79A (11719716_a_at) / RFU HIST1H1D (11736915_at) / Fold change /veh HIST1H1D (11736915_at) / RFU CASKIN2 (11723855_a_at) / Fold change /veh CASKIN2 (11723855_a_at) / RFU LOC730098 (11760151_x_at) / Fold change /veh LOC730098 (11760151_x_at) / RFU OR4N2 (11742367_at) / Fold change /veh OR4N2 (11742367_at) / RFU PRRT2 (11749266_a_at) / Fold change /veh PRRT2 (11749266_a_at) / RFU SNX32 (11753110_a_at) / Fold change /veh SNX32 (11753110_a_at) / RFU CDHR5 (11726645_a_at) / Fold change /veh CDHR5 (11726645_a_at) / RFU RCAN1 (11760418_a_at) / Fold change /veh RCAN1 (11760418_a_at) / RFU FAM167A (11723789_a_at) / Fold change /veh FAM167A (11723789_a_at) / RFU FAM26E (11764081_at) / Fold change /veh FAM26E (11764081_at) / RFU ISYNA1 (11749810_s_at) / Fold change /veh ISYNA1 (11749810_s_at) / RFU ACY1 (11761880_at) / Fold change /veh ACY1 (11761880_at) / RFU 11764098_at / Fold change /veh 11764098_at / RFU SAMD14 (11745864_x_at) / Fold change /veh SAMD14 (11745864_x_at) / RFU NPB (11741838_a_at) / Fold change /veh NPB (11741838_a_at) / RFU TMPRSS6 (11731388_a_at) / Fold change /veh TMPRSS6 (11731388_a_at) / RFU KRTAP10-2 (11738614_at) / Fold change /veh KRTAP10-2 (11738614_at) / RFU ARHGAP8 /// PRR5-ARHGAP8 (11727945_x_at) / Fold change /veh ARHGAP8 /// PRR5-ARHGAP8 (11727945_x_at) / RFU KRTAP5-7 /// NADSYN1 (11734609_at) / Fold change /veh KRTAP5-7 /// NADSYN1 (11734609_at) / RFU RASL12 (11751679_a_at) / Fold change /veh RASL12 (11751679_a_at) / RFU CDKN2B (11736163_a_at) / Fold change /veh CDKN2B (11736163_a_at) / RFU PRF1 (11729649_at) / Fold change /veh PRF1 (11729649_at) / RFU, ZNF638 /// ZNF638-IT1 / Fold change vs veh, ZNF638 /// ZNF638-IT1 / RFU, PANK3 / Fold change vs veh, PANK3 / RFU, SH3YL1 / Fold change vs veh, SH3YL1 / RFU, ZEB2 / Fold change vs veh, ZEB2 / RFU, NRIP1 / Fold change vs veh, NRIP1 / RFU, PTTG1IP / Fold change vs veh, PTTG1IP / RFU, CAPN2 / Fold change vs veh, CAPN2 / RFU, MED14 / Fold change vs veh, MED14 / RFU, SNORA58 / Fold change vs veh, SNORA58 / RFU, C1orf63 / Fold change vs veh, C1orf63 / RFU, LRRFIP1 / Fold change vs veh, LRRFIP1 / RFU, NDUFAF7 / Fold change vs veh, NDUFAF7 / RFU, SLC12A2 / Fold change vs veh, SLC12A2 / RFU, IBTK / Fold change vs veh, IBTK / RFU, ESF1 / Fold change vs veh, ESF1 / Fold change vs veh, TMEM50B / RFU, TAOK1 / Fold change vs veh, TAOK1 / RFU, ACBD3 / Fold change vs veh, ACBD3 / RFU, TMA16 / Fold change vs veh, TMA16 / RFU, RWDD3 / Fold change vs veh, RWDD3 / RFU, BCAT1 / Fold change vs veh, BCAT1 / RFU, EDEM3 / Fold change vs veh, EDEM3 / RFU, TMEM33 / Fold change vs veh, TMEM33 / RFU, WDR75 / Fold change vs veh, WDR75 / RFU, AHCTF1 / Fold change vs veh, AHCTF1 / RFU, TFRC / Fold change vs veh, TFRC / RFU, ZDHHC17 / Fold change vs veh, ZDHHC17 / RFU, NOM1 / Fold change vs veh, NOM1 / RFU, ARL8B / Fold change vs veh, ARL8B / RFU, ZBTB11 / Fold change vs veh, ZBTB11 / RFU, TAMM41 / Fold change vs veh, TAMM41 / RFU, KIAA1704 /// LOC100996395 / Fold change vs veh, KIAA1704 /// LOC100996395 / RFU, ING1 / Fold change vs veh, ING1 / RFU, TRMT61B / Fold change vs veh, TRMT61B / RFU, FUBP3 / Fold change vs veh, FUBP3 / RFU, TP53 / Fold change vs veh, TP53 / RFU, TNKS2 / Fold change vs veh, TNKS2 / RFU, ZFP14 / Fold change vs veh, ZFP14 / RFU, ACTR2 / Fold change vs veh, ACTR2 / RFU, PPP3R1 / Fold change vs veh, PPP3R1 / RFU, PIK3R1 / Fold change vs veh, PIK3R1 / RFU, HNRNPA1 / Fold change vs veh, HNRNPA1 / RFU, RNF170 / Fold change vs veh, RNF170 / RFU, ZNF28 / Fold change vs veh, ZNF28 / RFU, RNGTT / Fold change vs veh, RNGTT / RFU, OGT / Fold change vs veh, OGT / RFU, BRD1 / Fold change vs veh, BRD1 / RFU, MARS / Fold change vs veh, MARS / RFU, ZNF655 / Fold change vs veh, ZNF655 / RFU, FAHD1 / Fold change vs veh, FAHD1 / RFU, BDP1 / Fold change vs veh, BDP1 / RFU, LRRCC1 / Fold change vs veh, LRRCC1 / RFU, ARID1A / Fold change vs veh, ARID1A / RFU, ZNF146 / Fold change vs veh, ZNF146 / RFU, ZNF330 / Fold change vs veh, ZNF330 / RFU, GPN3 / Fold change vs veh, GPN3 / RFU, C9orf123 / Fold change vs veh, C9orf123 / RFU, N4BP2L2 / Fold change vs veh, N4BP2L2 / RFU, ARFIP1 / Fold change vs veh, ARFIP1 / RFU, FAM179B / Fold change vs veh, FAM179B / RFU, BCL10 / Fold change vs veh, BCL10 / RFU, UHRF1BP1L / Fold change vs veh, UHRF1BP1L / RFU, BET1 / Fold change vs veh, BET1 / RFU, CNOT2 / Fold change vs veh, CNOT2 / RFU, ZNF268 / Fold change vs veh, ZNF268 / Fold change vs veh, ZNF507 / RFU, DGCR2 / Fold change vs veh, DGCR2 / RFU, WDSUB1 / Fold change vs veh, WDSUB1 / Fold change vs veh, HSP90B1 /// MIR3652 / RFU, ADSS / Fold change vs veh, ADSS / RFU, GK / Fold change vs veh, GK / RFU, ZNF148 / Fold change vs veh, ZNF148 / RFU, TAF9 / Fold change vs veh, TAF9 / RFU, SLC1A5 / Fold change vs veh, SLC1A5 / RFU, SLMO2 / Fold change vs veh, SLMO2 / RFU, ABCC4 / Fold change vs veh, ABCC4 / RFU, LOC101060439 /// RAP1B / Fold change vs veh, LOC101060439 /// RAP1B / RFU, RFX7 / Fold change vs veh, RFX7 / RFU, GTPBP10 / Fold change vs veh, GTPBP10 / RFU, CNEP1R1 / Fold change vs veh, CNEP1R1 / RFU, BIVM-ERCC5 /// ERCC5 / Fold change vs veh, BIVM-ERCC5 /// ERCC5 / RFU, ILF3 / Fold change vs veh, ILF3 / RFU 11762660_at / Fold change /veh 11762660_at / RFU VCAN (11757783_s_at) / Fold change /veh VCAN (11757783_s_at) / RFU DDX43 (11728927_at) / Fold change /veh DDX43 (11728927_at) / RFU KRT8 (11758188_x_at) / Fold change /veh KRT8 (11758188_x_at) / RFU NKD1 (11759106_at) / Fold change /veh NKD1 (11759106_at) / RFU SRD5A1 (11742802_a_at) / Fold change /veh SRD5A1 (11742802_a_at) / RFU TPSAB1 /// TPSB2 (11721975_s_at) / Fold change /veh TPSAB1 /// TPSB2 (11721975_s_at) / RFU GSTM3 (11746129_a_at) / Fold change /veh GSTM3 (11746129_a_at) / RFU IL23R (11737362_x_at) / Fold change /veh IL23R (11737362_x_at) / RFU TMEM51 (11727254_a_at) / Fold change /veh TMEM51 (11727254_a_at) / RFU PIWIL2 (11732686_x_at) / Fold change /veh PIWIL2 (11732686_x_at) / RFU ORM1 (11744905_x_at) / Fold change /veh ORM1 (11744905_x_at) / RFU CCDC152 (11743942_at) / Fold change /veh CCDC152 (11743942_at) / RFU ECM1 (11717891_a_at) / Fold change /veh ECM1 (11717891_a_at) / RFU IL23R (11748794_a_at) / Fold change /veh IL23R (11748794_a_at) / RFU TNFAIP8L3 (11732012_x_at) / Fold change /veh TNFAIP8L3 (11732012_x_at) / RFU MBOAT4 (11741988_at) / Fold change /veh MBOAT4 (11741988_at) / RFU 11764193_at / Fold change /veh 11764193_at / RFU TMEM53 (11763286_at) / Fold change /veh TMEM53 (11763286_at) / RFU MAGEB2 (11727129_at) / Fold change /veh MAGEB2 (11727129_at) / RFU TMEM200A (11744735_a_at) / Fold change /veh TMEM200A (11744735_a_at) / RFU CCDC152 (11751479_a_at) / Fold change /veh CCDC152 (11751479_a_at) / RFU FAM211A (11726209_a_at) / Fold change /veh FAM211A (11726209_a_at) / RFU RGS16 (11746705_a_at) / Fold change /veh RGS16 (11746705_a_at) / RFU VCAN (11755009_s_at) / Fold change /veh VCAN (11755009_s_at) / RFU RHOB (11743442_s_at) / Fold change /veh RHOB (11743442_s_at) / RFU RGS16 (11720943_a_at) / Fold change /veh RGS16 (11720943_a_at) / RFU RGS16 (11720944_at) / Fold change /veh RGS16 (11720944_at) / RFU, VPS4B / Fold change vs veh, VPS4B / RFU, CREB1 / Fold change vs veh, CREB1 / RFU, DNAJC13 / Fold change vs veh, DNAJC13 / RFU, GNAQ / Fold change vs veh, GNAQ / RFU, CDK5R1 / Fold change vs veh, CDK5R1 / RFU, ZRANB3 / Fold change vs veh, ZRANB3 / RFU, CUL4A / Fold change vs veh, CUL4A / RFU, CCNY / Fold change vs veh, CCNY / RFU, UFL1 / Fold change vs veh, UFL1 / RFU, COG3 / Fold change vs veh, COG3 / RFU, DIAPH2 / Fold change vs veh, DIAPH2 / RFU, SKA2 / Fold change vs veh, SKA2 / RFU, AFF3 / Fold change vs veh, AFF3 / RFU, LMF1 / Fold change vs veh, LMF1 / RFU, IPO11 / Fold change vs veh, IPO11 / RFU, DFFB / Fold change vs veh, DFFB / RFU, FOXP1 / Fold change vs veh, FOXP1 / RFU, CARD8 / Fold change vs veh, CARD8 / RFU, STRN3 / Fold change vs veh, STRN3 / RFU, ADK / Fold change vs veh, ADK / RFU, RASSF2 / Fold change vs veh, RASSF2 / RFU, WIPF1 / Fold change vs veh, WIPF1 / RFU, LARP1B / Fold change vs veh, LARP1B / RFU, RASA1 / Fold change vs veh, RASA1 / RFU, RB1 / Fold change vs veh, RB1 / RFU, PPFIA1 / Fold change vs veh, PPFIA1 / RFU, MAT2A / Fold change vs veh, MAT2A / RFU, CCT5 / Fold change vs veh, CCT5 / RFU, WDR92 / Fold change vs veh, WDR92 / RFU, CUX1 / Fold change vs veh, CUX1 / RFU, TTC7A / Fold change vs veh, TTC7A / RFU, TMEM135 / Fold change vs veh, TMEM135 / RFU, DEPTOR / Fold change vs veh, DEPTOR / RFU, CPM / Fold change vs veh, CPM / RFU, DNAJB6 / Fold change vs veh, DNAJB6 / RFU, CACNA2D3 / Fold change vs veh, CACNA2D3 / RFU, DTX4 / Fold change vs veh, DTX4 / RFU, TFCP2 / Fold change vs veh, TFCP2 / RFU, GMCL1 /// GMCL1P1 / Fold change vs veh, GMCL1 /// GMCL1P1 / RFU, AEBP2 / Fold change vs veh, AEBP2 / RFU, SNHG1 /// SNORD22 /// SNORD25 /// SNORD26 /// SNORD27 /// SNORD28 /// SNORD29 /// SNORD31 / Fold change vs veh, SNHG1 /// SNORD22 /// SNORD25 /// SNORD26 /// SNORD27 /// SNORD28 /// SNORD29 /// SNORD31 / Fold change (Aza/veh), C12orf56 (ProbeSet 11735607_a_at) / Fold change (ACY-1035/veh), C12orf56 (ProbeSet 11735607_a_at) / Fold change (Aza/veh), FGFR1OP (ProbeSet 11751329_s_at) / Fold change (ACY-1035/veh), FGFR1OP (ProbeSet 11751329_s_at) / Fold change (Aza/veh), VPS36 (ProbeSet 11739960_a_at) / Fold change (ACY-1035/veh), VPS36 (ProbeSet 11739960_a_at) / RFU SYPL1 (11715823_x_at) / Fold change /veh SYPL1 (11715823_x_at) / RFU IGFBP7 (11715501_s_at) / Fold change /veh IGFBP7 (11715501_s_at) / RFU REEP3 (11722064_at) / Fold change /veh REEP3 (11722064_at) / RFU IGLL1 (11728026_x_at) / Fold change /veh IGLL1 (11728026_x_at): dose or concentration left out as unconfirmed
Details: MV-4-11 cells, 48 hours

For `Nc1ncn([C@@H]2O[C@H](CO)[C@@H](O)[C@H]2O)c(=O)n1` [azacitidine], the “Fold change /veh GSTM3 (11746129_a_at)” value was 1.35.
